# Publication PMC6301090 (Nature medicine, 2018)
# pKd: −log10 of the molar value.
# Target: ΔF508-NBD1 (CFTR nucleotide binding domain 1) (Homo sapiens, UniProt P13569, F494N/DEL508-508)
# Test: SPR
smiles,measurement,value
"O=C(O)Cc1c(Br)[nH]c2ccccc12 [BIA, bromoindole-3-acetic acid]",pKd,< 3.00
